# Reference: article PMC9401487 (Clinical Cancer Research, 2021)
# Entries after “also recorded” stand apart in the source; their conditions may differ.
# System: patients with advanced solid tumors
# Test: Phase I safety and tolerability
# Type: in vivo, human
# [1] = Cohort 1 (N=2), 20 mg BID 17 days + carboplatin
# [2] = Cohort 2 (N=7), 20 mg BID 10 days + carboplatin
# [3] = Cohort 3 (N=3), 40 mg BID 10 days + carboplatin
smiles,measurement,setting,value
C[C@@H]1COCCN1c1cc(C2([S@](C)(=N)=O)CC2)nc(-c2cc[nH]c3nccc2-3)n1 [ceralasertib],"TEAE Abdominal pain, Grade 1–2",[1],"0 patients, n (%)"
same,"TEAE Abdominal pain, Grade ≥3",[1],"1 (50) patients, n (%)"
same,"TEAE Alanine aminotransferase increased, Grade 1–2",[1],"0 patients, n (%)"
same,"TEAE Alanine aminotransferase increased, Grade ≥3",[1],"0 patients, n (%)"
same,"TEAE Anemia, Grade 1–2",[1],"1 (50) patients, n (%)"
same,"TEAE Anemia, Grade ≥3",[1],"0 patients, n (%)"
same,"TEAE Any AE, Grade 1–2",[1],"1 (50) patients, n (%)"
same,"TEAE Any AE, Grade ≥3",[1],"1 (50) patients, n (%)"
same,"TEAE Arthralgia, Grade 1–2",[1],"0 patients, n (%)"
same,"TEAE Arthralgia, Grade ≥3",[1],"0 patients, n (%)"
same,"TEAE Aspartate aminotransferase increased, Grade 1–2",[1],"0 patients, n (%)"
same,"TEAE Aspartate aminotransferase increased, Grade ≥3",[1],"0 patients, n (%)"
same,"TEAE Constipation, Grade 1–2",[1],"1 (50) patients, n (%)"
same,"TEAE Constipation, Grade ≥3",[1],"0 patients, n (%)"
same,"TEAE Contusion, Grade 1–2",[1],"0 patients, n (%)"
same,"TEAE Contusion, Grade ≥3",[1],"0 patients, n (%)"
same,"TEAE Cough, Grade 1–2",[1],"0 patients, n (%)"
same,"TEAE Cough, Grade ≥3",[1],"0 patients, n (%)"
same,"TEAE Decreased appetite, Grade 1–2",[1],"0 patients, n (%)"
same,"TEAE Decreased appetite, Grade ≥3",[1],"0 patients, n (%)"
same,"TEAE Diarrhea, Grade 1–2",[1],"1 (50) patients, n (%)"
same,"TEAE Diarrhea, Grade ≥3",[1],"0 patients, n (%)"
same,"TEAE Dizziness, Grade 1–2",[1],"0 patients, n (%)"
same,"TEAE Dizziness, Grade ≥3",[1],"0 patients, n (%)"
same,"TEAE Dyspnea, Grade 1–2",[1],"1 (50) patients, n (%)"
same,"TEAE Dyspnea, Grade ≥3",[1],"0 patients, n (%)"
same,"TEAE Fatigue, Grade 1–2",[1],"2 (100) patients, n (%)"
same,"TEAE Fatigue, Grade ≥3",[1],"0 patients, n (%)"
same,"TEAE Hypocalcemia, Grade 1–2",[1],"0 patients, n (%)"
same,"TEAE Hypocalcemia, Grade ≥3",[1],"0 patients, n (%)"
same,"TEAE Insomnia, Grade 1–2",[1],"0 patients, n (%)"
same,"TEAE Insomnia, Grade ≥3",[1],"0 patients, n (%)"
same,"TEAE Lower respiratory tract infection, Grade 1–2",[1],"0 patients, n (%)"
same,"TEAE Lower respiratory tract infection, Grade ≥3",[1],"0 patients, n (%)"
same,"TEAE Nausea, Grade 1–2",[1],"1 (50) patients, n (%)"
same,"TEAE Nausea, Grade ≥3",[1],"0 patients, n (%)"
same,"TEAE Neutropenia, Grade 1–2",[1],"0 patients, n (%)"
same,"TEAE Neutropenia, Grade ≥3",[1],"1 (50) patients, n (%)"
same,"TEAE Neutrophil count decreased, Grade 1–2",[1],"0 patients, n (%)"
same,"TEAE Neutrophil count decreased, Grade ≥3",[1],"0 patients, n (%)"
same,"TEAE Platelet count decreased, Grade 1–2",[1],"0 patients, n (%)"
same,"TEAE Platelet count decreased, Grade ≥3",[1],"0 patients, n (%)"
same,"TEAE Pyrexia, Grade 1–2",[1],"1 (50) patients, n (%)"
same,"TEAE Pyrexia, Grade ≥3",[1],"0 patients, n (%)"
same,"TEAE Thrombocytopenia, Grade 1–2",[1],"1 (50) patients, n (%)"
same,"TEAE Thrombocytopenia, Grade ≥3",[1],"1 (50) patients, n (%)"
same,"TEAE Upper respiratory tract infection, Grade 1–2",[1],"0 patients, n (%)"
same,"TEAE Upper respiratory tract infection, Grade ≥3",[1],"0 patients, n (%)"
same,"TEAE Vomiting, Grade 1–2",[1],"1 (50) patients, n (%)"
same,"TEAE Vomiting, Grade ≥3",[1],"0 patients, n (%)"
same,"TEAE White blood cell count decreased, Grade 1–2",[1],"0 patients, n (%)"
same,"TEAE White blood cell count decreased, Grade ≥3",[1],"1 (50) patients, n (%)"
same,SRC decision (tolerability),"Cohort 1: 20 mg BID days 4–20 (17 days) + carboplatin AUC5, 2 patients",declared intolerable; also recorded: Not tolerated
same,"TEAE Abdominal pain, Grade 1–2",[2],"0 patients, n (%)"
same,"TEAE Abdominal pain, Grade ≥3",[2],"0 patients, n (%)"
same,"TEAE Alanine aminotransferase increased, Grade 1–2",[2],"1 (14) patients, n (%)"
same,"TEAE Alanine aminotransferase increased, Grade ≥3",[2],"0 patients, n (%)"
same,"TEAE Anemia, Grade 1–2",[2],"2 (29) patients, n (%)"
same,"TEAE Anemia, Grade ≥3",[2],"2 (29) patients, n (%)"
same,"TEAE Any AE, Grade 1–2",[2],"2 (29) patients, n (%)"
same,"TEAE Any AE, Grade ≥3",[2],"5 (71) patients, n (%)"
same,"TEAE Arthralgia, Grade 1–2",[2],"1 (14) patients, n (%)"
same,"TEAE Arthralgia, Grade ≥3",[2],"0 patients, n (%)"
same,"TEAE Aspartate aminotransferase increased, Grade 1–2",[2],"1 (14) patients, n (%)"
same,"TEAE Aspartate aminotransferase increased, Grade ≥3",[2],"0 patients, n (%)"
same,"TEAE Constipation, Grade 1–2",[2],"2 (29) patients, n (%)"
same,"TEAE Constipation, Grade ≥3",[2],"0 patients, n (%)"
same,"TEAE Contusion, Grade 1–2",[2],"1 (14) patients, n (%)"
same,"TEAE Contusion, Grade ≥3",[2],"0 patients, n (%)"
same,"TEAE Cough, Grade 1–2",[2],"5 (71) patients, n (%)"
same,"TEAE Cough, Grade ≥3",[2],"0 patients, n (%)"
same,"TEAE Decreased appetite, Grade 1–2",[2],"1 (14) patients, n (%)"
same,"TEAE Decreased appetite, Grade ≥3",[2],"0 patients, n (%)"
same,"TEAE Diarrhea, Grade 1–2",[2],"2 (29) patients, n (%)"
same,"TEAE Diarrhea, Grade ≥3",[2],"0 patients, n (%)"
same,"TEAE Dizziness, Grade 1–2",[2],"0 patients, n (%)"
same,"TEAE Dizziness, Grade ≥3",[2],"0 patients, n (%)"
same,"TEAE Dyspnea, Grade 1–2",[2],"3 (43) patients, n (%)"
same,"TEAE Dyspnea, Grade ≥3",[2],"0 patients, n (%)"
same,"TEAE Fatigue, Grade 1–2",[2],"4 (58) patients, n (%)"
same,"TEAE Fatigue, Grade ≥3",[2],"1 (14) patients, n (%)"
same,"TEAE Hypocalcemia, Grade 1–2",[2],"0 patients, n (%)"
same,"TEAE Hypocalcemia, Grade ≥3",[2],"0 patients, n (%)"
same,"TEAE Insomnia, Grade 1–2",[2],"2 (29) patients, n (%)"
same,"TEAE Insomnia, Grade ≥3",[2],"0 patients, n (%)"
same,"TEAE Lower respiratory tract infection, Grade 1–2",[2],"2 (29) patients, n (%)"
same,"TEAE Lower respiratory tract infection, Grade ≥3",[2],"0 patients, n (%)"
same,"TEAE Nausea, Grade 1–2",[2],"2 (29) patients, n (%)"
same,"TEAE Nausea, Grade ≥3",[2],"0 patients, n (%)"
same,"TEAE Neutropenia, Grade 1–2",[2],"1 (14) patients, n (%)"
same,"TEAE Neutropenia, Grade ≥3",[2],"0 patients, n (%)"
same,"TEAE Neutrophil count decreased, Grade 1–2",[2],"0 patients, n (%)"
same,"TEAE Neutrophil count decreased, Grade ≥3",[2],"0 patients, n (%)"
same,"TEAE Platelet count decreased, Grade 1–2",[2],"0 patients, n (%)"
same,"TEAE Platelet count decreased, Grade ≥3",[2],"1 (14) patients, n (%)"
same,"TEAE Pyrexia, Grade 1–2",[2],"3 (43) patients, n (%)"
same,"TEAE Pyrexia, Grade ≥3",[2],"0 patients, n (%)"
same,"TEAE Thrombocytopenia, Grade 1–2",[2],"4 (58) patients, n (%)"
same,"TEAE Thrombocytopenia, Grade ≥3",[2],"1 (14) patients, n (%)"
same,"TEAE Upper respiratory tract infection, Grade 1–2",[2],"3 (43) patients, n (%)"
same,"TEAE Upper respiratory tract infection, Grade ≥3",[2],"0 patients, n (%)"
same,"TEAE Vomiting, Grade 1–2",[2],"2 (29) patients, n (%)"
same,"TEAE Vomiting, Grade ≥3",[2],"0 patients, n (%)"
same,"TEAE White blood cell count decreased, Grade 1–2",[2],"0 patients, n (%)"
same,"TEAE White blood cell count decreased, Grade ≥3",[2],"0 patients, n (%)"
same,"TEAE Abdominal pain, Grade 1–2",[3],"0 patients, n (%)"
same,"TEAE Abdominal pain, Grade ≥3",[3],"0 patients, n (%)"
same,"TEAE Alanine aminotransferase increased, Grade 1–2",[3],"0 patients, n (%)"
same,"TEAE Alanine aminotransferase increased, Grade ≥3",[3],"0 patients, n (%)"
same,"TEAE Anemia, Grade 1–2",[3],"1 (33) patients, n (%)"
